These results are taken from US4782139A, “Selective chemical removal of a protein amino-terminal residue” (Eli Lilly and Company, priority 1986, dated 1988).

The nature of data set [1]: Protein stability under organic cleavage conditions, anion exchange HPLC. Type of data set: physicochemical. The conditions noted are these: 40° C.
Protocol: Anion exchange chromatography was conducted on a Mono Q column in a 0.05M Tris, pH 8.0 buffer containing 30% acetonitrile. Elution was provided using a linear gradient of sodium chloride. Reverse phase analysis was performed on a Zorbax C8, 150Å pore size column using an acetonitrile gradient in 0.1M ammonium phosphate at 45° C., pH 7.0.
A short description of data set [2]: Protein stability under organic cleavage conditions, reverse phase HPLC. The conditions noted are these: 40° C.; for Protein Stability, relative percent remaining: against an untreated external control.
Protocol: Analysis of the products obtained via the foregoing cleavage methods upon a representative sampling of peptides and proteins was assessed by high performance anion exchange and reverse phase chromatography. Anion exchange chromatography was conducted on a Mono Q column in a 0.05M Tris, pH 8.0 buffer containing 30% acetonitrile. Elution was provided using a linear gradient of sodium chloride. Reverse phase analysis was performed on a Zorbax C8, 150Å pore size column using an acetonitrile gradient in 0.1M ammonium phosphate at 45° C., pH 7.0.
Data set [3] is described as follows: Organic cleavage conditions: diketopiperazine formation and disappearance of starting peptide, reverse phase chromatography. In kind it is physicochemical. The source says: […] A molecular sieves for one week. […] The rate of cleavage was monitored by appearance of methionyl-proline diketopiperazine formation and disappearance of starting peptide as measured in reverse phase chromatographic analysis. Chromatography was achieved using a 0.46×25 cm column of Ultrosphere C18 in 0.1% trifluoroacetic acid (TFA), using an acetonitrile gradient to effect elution. The reaction was stopped at each analysis time point by ten-fold dilution with 0.1% trifluoroacetic acid. The diketopiperazine peak was collected and its identity confirmed by amino acid and mass spectral analysis.

Residues, ends and D or L forms follow the SMILES beside them. No end group written: not given here.

On to methionyl human growth hormone, for which the “Stability, determined by anion exchange HPLC” value in data set [1] (0.33 M HOAc/DMF, 2 h) is given as 78; in data set [1] (0.33 M HOAc/DMF, 4 h), 68; in data set [1] (0.33 M HOAc/DMF, 24 h) it was 34; in data set [1] (0.33 M HOAc/DMSO, 2 h), 100; in data set [1] (0.33 M HOAc/DMSO, 4 h), 99; in data set [1] (0.33 M HOAc/DMSO, 24 h) it was 86. For the same compound, the “Stability, determined by anion exchange HPLC” value in data set [1] (0.33 M HOAc/NMP, 2 h) is recorded as 90; in data set [1] (0.33 M HOAc/NMP, 4 h) it was 89; in data set [1] (0.33 M HOAc/NMP, 24 h) it was 75. Besides, the “Stability, determined by reverse phase HPLC” value in data set [2] (0.33 M HOAc/DMF, 2 h) is 78; in data set [2] (0.33 M HOAc/DMF, 4 h) it was 65; in data set [2] (0.33 M HOAc/DMF, 24 h) it was 45; in data set [2] (0.33 M HOAc/DMSO, 2 h), 91; in data set [2] (0.33 M HOAc/DMSO, 4 h) it was 77; in data set [2] (0.33 M HOAc/DMSO, 24 h), 75. Further, the “Stability, determined by reverse phase HPLC” value was 85 in data set [2] (0.33 M HOAc/NMP, 2 h); 70 in data set [2] (0.33 M HOAc/NMP, 4 h); 77 in data set [2] (0.33 M HOAc/NMP, 24 h).
For the compound “APLEPEYPGDNATPEQMAQYAAELRRYINMLTRPRY-NH2 [bPP, bovine pancreatic polypeptide, reference compound]”, the “Protein Stability, relative percent remaining” value in data set [2] (1 M HOAc/DMF, 2 h) is on record as 42%; in data set [2] (1 M HOAc/DMF, 24 h), 40%; in data set [2] (1 M HOAc/DMF, 48 h), 32%; in data set [2] (1 M HOAc/DMSO, 2 h) it was 52%; in data set [2] (1 M HOAc/DMSO, 24 h), 90%; in data set [2] (1 M HOAc/DMSO, 48 h), 86%.
Take “insulin Bchain Ssulfonate [B(SO3^- )2, reference compound]”: the “Protein Stability, relative percent remaining” value worked out at 97% in data set [2] (1 M HOAc/DMF, 2 h); 62% in data set [2] (1 M HOAc/DMF, 24 h); 94% in data set [2] (1 M HOAc/DMSO, 2 h); 106% in data set [2] (1 M HOAc/DMSO, 24 h).
Take “insulin Achain Ssulfonate [A(SO3^- )4, reference compound]”: the “Protein Stability, relative percent remaining” value in data set [2] (1 M HOAc/DMF, 2 h) was found to be 100%; in data set [2] (1 M HOAc/DMF, 24 h), 58%; in data set [2] (1 M HOAc/DMSO, 2 h), 100%; in data set [2] (1 M HOAc/DMSO, 24 h), 100%; in data set [2] (1 M HOAc/DMSO, 48 h) it was 96%.
With `CSCC[C@H](N)C(=O)N1CCC[C@H]1C(=O)NCC(=O)NCC(N)=O` [Met--Pro--Gly--Gly--NH2] (H-MPGG-NH2), the “quantity of starting material remaining” value in data set [3] (1 M HOAc/CH2 Cl2, 25° C., 0 h) is recorded as 100%; in data set [3] (1 M HOAc/CH2 Cl2, 25° C., 2 h) it was 104%; in data set [3] (1 M HOAc/CH2 Cl2, 25° C., 4 h) it was 96%; in data set [3] (1 M HOAc/CH2 Cl2, 25° C., 6 h), 99%; in data set [3] (1 M HOAc/CH2 Cl2, 25° C., 24 h), 80%; in data set [3] (1 M HOAc/CH3 CN, 25° C., 0 h) it was 100%. For the same compound, the “quantity of starting material remaining” value in data set [3] (1 M HOAc/CH3 CN, 25° C., 2 h) was determined as 114%; in data set [3] (1 M HOAc/CH3 CN, 25° C., 4 h), 105%; in data set [3] (1 M HOAc/CH3 CN, 25° C., 6 h), 99%; in data set [3] (1 M HOAc/CH3 CN, 25° C., 24 h), 66%; in data set [3] (1 M HOAc/DMF, 25° C., 0 h), 100%; in data set [3] (1 M HOAc/DMF, 25° C., 2 h), 88%. Further, the “quantity of starting material remaining” value in data set [3] (1 M HOAc/DMF, 25° C., 4 h) is 71%; in data set [3] (1 M HOAc/DMF, 25° C., 6 h), 57%; in data set [3] (1 M HOAc/DMF, 25° C., 24 h), 11%; in data set [3] (1 M HOAc/DMSO, determined at 40° C., 0 h), 100%; in data set [3] (1 M HOAc/DMSO, determined at 40° C., 2 h) it was 73%; in data set [3] (1 M HOAc/DMSO, determined at 40° C., 4 h), 56%. Also, the “quantity of starting material remaining” value in data set [3] (1 M HOAc/DMSO, determined at 40° C., 24 h) is on record as 6%; in data set [3] (1 M HOAc/MeOH, 25° C., 0 h), 100%; in data set [3] (1 M HOAc/MeOH, 25° C., 2 h), 101%; in data set [3] (1 M HOAc/MeOH, 25° C., 4 h) it was 99%; in data set [3] (1 M HOAc/MeOH, 25° C., 6 h), 99%; in data set [3] (1 M HOAc/MeOH, 25° C., 24 h), 97%. Also, the “quantity of starting material remaining” value in data set [3] (1 M HOAc/nPrOH, 25° C., 2 h) was determined as 100%; in data set [3] (1 M HOAc/nPrOH, 25° C., 4 h), 97%; in data set [3] (1 M HOAc/nPrOH, 25° C., 6 h), 94%; in data set [3] (1 M HOAc/nPrOH, 25° C., 24 h), 72%.
Regarding Proinsulin, the “Protein Stability, relative percent remaining” value in data set [2] (1 M HOAc/DMF, 2 h) was found to be 86%; in data set [2] (1 M HOAc/DMF, 24 h) it was 43%; in data set [2] (1 M HOAc/DMF, 48 h), 30%; in data set [2] (1 M HOAc/DMSO, 2 h) it was 97%; in data set [2] (1 M HOAc/DMSO, 24 h), 70%; in data set [2] (1 M HOAc/DMSO, 48 h), 86%.
